Results as given in US7517874B2 (priority 2007, dated 2009).

What was measured:
[1] = molecular target: human CB1 receptor (hCB1) (Homo sapiens, UniProt P21554); assay: cell-based; assay type: cell-based; settings: for +/− HCB1: agonist or inverse agonist at hCB1
In short: (§1)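 Agonism or inverse agonism was assessed as change in intracellular cAMP in CHO-K1 cells expressing human CB1 or rat CB2 (genomic DNA, pcDNA3.1).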

rat CB2 receptor (rCB2) = molecular target: T1, rat CB2 receptor (rCB2) (Rattus norvegicus, UniProt Q9QZN9); assay: cell-based; assay type: cell-based; settings: for +/− RCB2: agonist or inverse agonist at rCB2
T1 sequence (Q9QZN9 1-360): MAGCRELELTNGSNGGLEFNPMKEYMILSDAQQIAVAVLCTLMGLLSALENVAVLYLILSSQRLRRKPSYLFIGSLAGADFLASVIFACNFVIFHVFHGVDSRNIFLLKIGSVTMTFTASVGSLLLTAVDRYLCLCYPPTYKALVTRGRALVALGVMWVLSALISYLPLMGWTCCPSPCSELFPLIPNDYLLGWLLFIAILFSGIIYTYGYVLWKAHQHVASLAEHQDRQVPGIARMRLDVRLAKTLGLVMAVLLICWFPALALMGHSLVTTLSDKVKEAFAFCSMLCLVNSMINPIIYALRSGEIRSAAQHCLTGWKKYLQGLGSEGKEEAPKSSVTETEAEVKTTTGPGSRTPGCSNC
In short: as §1

Sequence of human CB1 receptor (hCB1) (P21554 whole entry): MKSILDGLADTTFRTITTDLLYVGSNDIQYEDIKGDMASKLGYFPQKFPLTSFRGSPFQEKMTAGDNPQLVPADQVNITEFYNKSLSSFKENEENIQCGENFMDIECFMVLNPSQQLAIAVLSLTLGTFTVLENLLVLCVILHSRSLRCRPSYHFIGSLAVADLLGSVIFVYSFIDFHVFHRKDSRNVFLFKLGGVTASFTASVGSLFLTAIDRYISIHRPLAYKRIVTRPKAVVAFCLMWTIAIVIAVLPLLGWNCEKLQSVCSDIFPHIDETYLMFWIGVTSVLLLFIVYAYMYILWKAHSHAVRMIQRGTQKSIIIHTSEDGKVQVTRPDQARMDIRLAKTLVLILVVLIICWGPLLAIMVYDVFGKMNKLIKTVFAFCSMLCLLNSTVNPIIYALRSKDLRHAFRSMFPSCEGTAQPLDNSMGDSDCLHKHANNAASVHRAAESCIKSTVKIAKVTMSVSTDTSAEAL

**Q.** `CNC(=O)[C@@H](NC(=O)c1nc(/C=C/COC)n2c1CN(C)CC2)C(C)(C)C` [Compound 264, (S,E)-N-(3,3-dimethyl-1-(methylamino)-1-oxobutan-2-yl)-3-(3-methoxyprop-1-enyl)-7-methyl-5,6,7,8-tetrahydroimidazo[1,5-a]pyrazine-1-carboxamide] was tested. Which EC50 [1] did it give?
**A.** Its EC50 is > 10 µM.

**Q.** And the “+/− RCB2” value (rat CB2 receptor (rCB2))?
**A.** Its value is “+”.

**Q.** How did the EC50 [1] turn out when `CNC(=O)[C@@H](NC(=O)c1nc(-c2ccc(-c3ccccc3)cc2)n2c1CN(C)CC2)C(C)(C)C` [Compound 265, (S)-3-(biphenyl-4-yl)-N-(3,3-dimethyl-1-(methylamino)-1-oxobutan-2-yl)-7-methyl-5,6,7,8-tetrahydroimidazo[1,5-a]pyrazine-1-carboxamide] was run?
**A.** The EC50 was > 10 µM.

**Q.** What about the “+/− RCB2” value (rat CB2 receptor (rCB2)) of the same compound?
**A.** Its value is “−”.

**Q.** What does the source list for `C=Cc1nc(C(=O)N[C@H](C(=O)NC)C(C)(C)C)c2n1CCN(C)C2` [Compound 266, (S)-N-(3,3-dimethyl-1-(methylamino)-1-oxobutan-2-yl)-7-methyl-3-vinyl-5,6,7,8-tetrahydroimidazo[1,5-a]pyrazine-1-carboxamide]?
**A.** EC50 [1]: > 10 µM; +/− RCB2 (rat CB2 receptor (rCB2)): −

**Q.** With `C=C(C)c1nc(C(=O)N[C@H](C(=O)NC)C(C)(C)C)c2n1CCN(C)C2` [Compound 267, (S)-N-(3,3-dimethyl-1-(methylamino)-1-oxobutan-2-yl)-7-methyl-3-(prop-1-en-2-yl)-5,6,7,8-tetrahydroimidazo[1,5-a]pyrazine-1-carboxamide] as the compound, how does the EC50 [1] read?
**A.** Its EC50 is > 10 µM.

**Q.** And the “+/− RCB2” value (rat CB2 receptor (rCB2))?
**A.** The value was “+”.

**Q.** With `CCC/C=C/c1nc(C(=O)N[C@H](C(=O)NC)C(C)(C)C)c2n1CCN(C)C2` [Compound 268, (S,E)-N-(3,3-dimethyl-1-(methylamino)-1-oxobutan-2-yl)-7-methyl-3-(pent-1-enyl)-5,6,7,8-tetrahydroimidazo[1,5-a]pyrazine-1-carboxamide] as the compound, how does the “+/− HCB1” value [1] read?
**A.** The value was “+”.

**Q.** And the EC50 (rat CB2 receptor (rCB2))?
**A.** Its EC50 is > 10 µM.

**Q.** `CNC(=O)[C@@H](NC(=O)c1nc(C2CC2)n2c1CN(C)CC2)C(C)(C)C` [Compound 269, (S)-3-cyclopropyl-N-(3,3-dimethyl-1-(methylamino)-1-oxobutan-2-yl)-7-methyl-5,6,7,8-tetrahydroimidazo[1,5-a]pyrazine-1-carboxamide] was tested. Which “+/− HCB1” value [1] did it give?
**A.** Its value is “+”.

**Q.** What about the “+/− RCB2” value (rat CB2 receptor (rCB2)) of the same compound?
**A.** The value was “+”.

**Q.** For `CNC(=O)[C@@H](NC(=O)c1nc(C2=CCC(C)CC2)n2c1CN(C)CC2)C(C)(C)C` (stereo partly drawn) [Compound 270, N-((S)-3,3-dimethyl-1-(methylamino)-1-oxobutan-2-yl)-7-methyl-3-(4-methylcyclohex-1-enyl)-5,6,7,8-tetrahydroimidazo[1,5-a]pyrazine-1-carboxamide], which EC50 [1] is on record?
**A.** The EC50 was > 10 µM.

**Q.** What about the “+/− RCB2” value (rat CB2 receptor (rCB2)) of the same compound?
**A.** The value was “−”.

**Q.** How did the “+/− HCB1” value [1] turn out when `CNC(=O)[C@@H](NC(=O)c1nc(C2=CCC(C(C)(C)C)CC2)n2c1CN(C)CC2)C(C)(C)C` (stereo partly drawn) [Compound 271, 3-(4-tert-butylcyclohex-1-enyl)-N-((S)-3,3-dimethyl-1-(methylamino)-1-oxobutan-2-yl)-7-methyl-5,6,7,8-tetrahydroimidazo[1,5-a]pyrazine-1-carboxamide] was run?
**A.** The value was “+”.

**Q.** What about the “+/− RCB2” value (rat CB2 receptor (rCB2)) of the same compound?
**A.** Its value is “+”.

**Q.** Which results are given for `CNC(=O)[C@@H](NC(=O)c1nc(C2=CCCCCC2)n2c1CN(C)CC2)C(C)(C)C` [Compound 272, (S,E)-3-cycloheptenyl-N-(3,3-dimethyl-1-(methylamino)-1-oxobutan-2-yl)-7-methyl-5,6,7,8-tetrahydroimidazo[1,5-a]pyrazine-1-carboxamide]?
**A.** +/− HCB1 [1]: +; +/− RCB2 (rat CB2 receptor (rCB2)): +

**Q.** What does the source list for `CNC(=O)[C@@H](NC(=O)c1nc(/C=C/C2CC2)n2c1CN(C)CC2)C(C)(C)C` [Compound 273, (S,E)-3-(2-cyclopropylvinyl)-N-(3,3-dimethyl-1-(methylamino)-1-oxobutan-2-yl)-7-methyl-5,6,7,8-tetrahydroimidazo[1,5-a]pyrazine-1-carboxamide]?
**A.** EC50 [1]: > 10 µM; EC50 (rat CB2 receptor (rCB2)): > 10 µM

**Q.** For `CNC(=O)[C@@H](NC(=O)c1nc(C2=CCNCC2)n2c1CN(C)CC2)C(C)(C)C` [Compound 274, (S)-N-(3,3-dimethyl-1-(methylamino)-1-oxobutan-2-yl)-7-methyl-3-(1,2,3,6-tetrahydropyridin-4-yl)-5,6,7,8-tetrahydroimidazo[1,5-a]pyrazine-1-carboxamide], which “+/− HCB1” value [1] is on record?
**A.** Its value is “+”.

**Q.** And the “+/− RCB2” value (rat CB2 receptor (rCB2))?
**A.** The value was “−”.

**Q.** How did the EC50 [1] turn out when `CNC(=O)[C@H](CC(C)C)NC(=O)c1nc(-c2ccccc2)n2c1CN(C)CC2` [Compound 275, (S)-7-methyl-N-(4-methyl-1-(methylamino)-1-oxopentan-2-yl)-3-phenyl-5,6,7,8-tetrahydroimidazo[1,5-a]pyrazine-1-carboxamide] was run?
**A.** The EC50 was > 10 µM.

**Q.** What about the “+/− RCB2” value (rat CB2 receptor (rCB2)) of the same compound?
**A.** The value was “+”.

**Q.** How did the EC50 [1] turn out when `CNC(=O)[C@H](CC(C)C)NC(=O)c1nc(-c2ccc(Cl)cc2F)n2c1CN(C)CC2` [Compound 276, (S)-3-(4-chloro-2-fluorophenyl)-7-methyl-N-(4-methyl-1-(methylamino)-1-oxopentan-2-yl)-5,6,7,8-tetrahydroimidazo[1,5-a]pyrazine-1-carboxamide] was run?
**A.** Its EC50 is > 10 µM.

**Q.** And the “+/− RCB2” value (rat CB2 receptor (rCB2))?
**A.** The value was “−”.

**Q.** How did the EC50 [1] turn out when `CNC(=O)[C@H](CC(C)C)NC(=O)c1nc(-c2ccc(Cl)c(F)c2)n2c1CN(C)CC2` [Compound 277, (S)-3-(4-chloro-3-fluorophenyl)-7-methyl-N-(4-methyl-1-(methylamino)-1-oxopentan-2-yl)-5,6,7,8-tetrahydroimidazo[1,5-a]pyrazine-1-carboxamide] was run?
**A.** The EC50 was > 10 µM.

**Q.** What about the “+/− RCB2” value (rat CB2 receptor (rCB2)) of the same compound?
**A.** The value was “−”.

**Q.** With `CNC(=O)[C@H](CC(C)C)NC(=O)c1nc(-c2ccc(F)c(F)c2)n2c1CN(C)CC2` [Compound 278, (S)-3-(3,4-difluorophenyl)-7-methyl-N-(4-methyl-1-(methylamino)-1-oxopentan-2-yl)-5,6,7,8-tetrahydroimidazo[1,5-a]pyrazine-1-carboxamide] as the compound, how does the EC50 [1] read?
**A.** Its EC50 is > 10 µM.

**Q.** What about the “+/− RCB2” value (rat CB2 receptor (rCB2)) of the same compound?
**A.** Its value is “+”.

**Q.** `CNC(=O)[C@H](CC(C)C)NC(=O)c1nc(C2=CCCC2)n2c1CN(C)CC2` [Compound 279, (S)-3-cyclopentenyl-7-methyl-N-(4-methyl-1-(methylamino)-1-oxopentan-2-yl)-5,6,7,8-tetrahydroimidazo[1,5-a]pyrazine-1-carboxamide] was tested. Which “+/− HCB1” value [1] did it give?
**A.** Its value is “+”.

**Q.** And the “+/− RCB2” value (rat CB2 receptor (rCB2))?
**A.** The value was “+”.

**Q.** Which results are given for `CNC(=O)[C@H](CC(C)C)NC(=O)c1nc(C2=CCCCO2)n2c1CN(C)CC2` [Compound 280, (S)-3-(3,4-dihydro-2H-pyran-6-yl)-7-methyl-N-(4-methyl-1-(methylamino)-1-oxopentan-2-yl)-5,6,7,8-tetrahydroimidazo[1,5-a]pyrazine-1-carboxamide]?
**A.** EC50 [1]: > 10 µM; +/− RCB2 (rat CB2 receptor (rCB2)): +

**Q.** Which results are given for `CN1CCn2c(-c3ccccc3)nc(C(=O)N[C@H](C(=O)O)C(C)(C)C)c2C1` [Compound 281, (S)-3,3-dimethyl-2-(7-methyl-3-phenyl-5,6,7,8-tetrahydroimidazo[1,5-a]pyrazine-1-carboxamido)butanoic acid]?
**A.** EC50 [1]: > 10 µM; +/− RCB2 (rat CB2 receptor (rCB2)): +

**Q.** For `Cc1noc([C@@H](NC(=O)c2nc(-c3ccccc3)n3c2CNCC3)C(C)(C)C)n1` [Compound 282, (S)-N-(2,2-dimethyl-1-(3-methyl-1,2,4-oxadiazol-5-yl)propyl)-3-phenyl-5,6,7,8-tetrahydroimidazo[1,5-a]pyrazine-1-carboxamide], which EC50 [1] is on record?
**A.** Its EC50 is > 10 µM.

**Q.** What about the EC50 (rat CB2 receptor (rCB2)) of the same compound?
**A.** Its EC50 is > 10 µM.

**Q.** With `CN1CCn2c(-c3ccccc3)nc(C(=O)N[C@H](c3nc(C(C)(C)C)no3)C(C)(C)C)c2C1` [Compound 283, (S)-N-(1-(3-tert-butyl-1,2,4-oxadiazol-5-yl)-2,2-dimethylpropyl)-7-methyl-3-phenyl-5,6,7,8-tetrahydroimidazo[1,5-a]pyrazine-1-carboxamide] as the compound, how does the EC50 [1] read?
**A.** The EC50 was > 10 µM.

**Q.** And the “+/− RCB2” value (rat CB2 receptor (rCB2))?
**A.** Its value is “−”.

**Q.** Which EC50 [1] does the source give for `CC(C)(C)c1noc([C@@H](NC(=O)c2nc(-c3ccccc3)n3c2CN(C2CC2)CC3)C(C)(C)C)n1` [Compound 284, (S)-N-(1-(3-tert-butyl-1,2,4-oxadiazol-5-yl)-2,2-dimethylpropyl)-7-cyclopropyl-3-phenyl-5,6,7,8-tetrahydroimidazo[1,5-a]pyrazine-1-carboxamide] here?
**A.** Its EC50 is > 10 µM.

**Q.** And the “+/− RCB2” value (rat CB2 receptor (rCB2))?
**A.** The value was “−”.

**Q.** How did the EC50 [1] turn out when `CN1CCn2c(-c3ccccc3)nc(C(=O)N[C@H](C(N)=O)C(C)(C)C)c2C1` [Compound 285, (S)-N-(1-amino-3,3-dimethyl-1-oxobutan-2-yl)-7-methyl-3-phenyl-5,6,7,8-tetrahydroimidazo[1,5-a]pyrazine-1-carboxamide] was run?
**A.** The EC50 was > 10 µM.

**Q.** And the EC50 (rat CB2 receptor (rCB2))?
**A.** The EC50 was > 10 µM.

**Q.** What does the source list for `CNC(=O)[C@@H](NC(=O)c1nc(/C=C/CN2CCOCC2)n2c1CN(C)CC2)C(C)(C)C` [Compound 286, (S,E)-N-(3,3-dimethyl-1-(methylamino)-1-oxobutan-2-yl)-7-methyl-3-(3-morpholinoprop-1-enyl)-5,6,7,8-tetrahydroimidazo[1,5-a]pyrazine-1-carboxamide]?
**A.** EC50 [1]: > 10 µM; +/− RCB2 (rat CB2 receptor (rCB2)): +

**Q.** Which EC50 [1] does the source give for `CNC(=O)[C@@H](NC(=O)c1nc(/C=C/CN2CCCCC2)n2c1CN(C)CC2)C(C)(C)C` [Compound 287, (S,E)-N-(3,3-dimethyl-1-(methylamino)-1-oxobutan-2-yl)-7-methyl-3-(3-(piperidin-1-yl)prop-1-enyl)-5,6,7,8-tetrahydroimidazo[1,5-a]pyrazine-1-carboxamide] here?
**A.** The EC50 was > 10 µM.

**Q.** What about the “+/− RCB2” value (rat CB2 receptor (rCB2)) of the same compound?
**A.** Its value is “+”.
